Measurements from ChEMBL document CHEMBL1136959, “Hit-to-lead optimization of pyrrolo[1,2-a]quinoxalines as novel cannabinoid type 1 receptor antagonists” (Bioorg Med Chem Lett, 2009).

These molecules were tested against Cannabinoid receptor 1 (Rattus norvegicus, UniProt P20272) (assay: Displacement of [3H]SR141716A from CB1 receptor in rat cerebellum membrane).
Sequence of Cannabinoid receptor 1 (P20272 whole entry): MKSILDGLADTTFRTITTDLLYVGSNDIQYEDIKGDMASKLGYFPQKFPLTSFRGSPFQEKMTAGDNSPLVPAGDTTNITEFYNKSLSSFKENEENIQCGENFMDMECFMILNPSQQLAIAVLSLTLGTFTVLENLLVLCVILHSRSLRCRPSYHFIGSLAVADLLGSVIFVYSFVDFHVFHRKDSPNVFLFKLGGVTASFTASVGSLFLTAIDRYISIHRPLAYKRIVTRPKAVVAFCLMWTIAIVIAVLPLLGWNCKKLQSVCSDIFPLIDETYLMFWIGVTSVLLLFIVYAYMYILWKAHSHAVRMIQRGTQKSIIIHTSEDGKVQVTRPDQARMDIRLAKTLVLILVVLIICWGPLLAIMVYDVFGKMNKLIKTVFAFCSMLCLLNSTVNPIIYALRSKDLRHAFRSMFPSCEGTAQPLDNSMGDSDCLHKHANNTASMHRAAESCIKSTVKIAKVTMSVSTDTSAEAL
Assay type: cell membranes
In the case of `CCCCN(CC(=O)N1c2ccccc2-n2cccc2C1c1ccc(Cl)cc1)C(=O)C(C)Cl` (centres undefined), the Ki is reported as 45 nM. For `CCCCN(CC(=O)N1c2ccccc2-n2cccc2C1c1ccccc1)C(=O)C(C)Cl` (centres undefined), the Ki was 260 nM. `CCCCN(CC(=O)N1c2ccccc2-n2cccc2C1c1ccc(OC)cc1)C(=O)C1CCC1` (centres undefined) gave a Ki of 214 nM. For `COc1ccc(C2c3cccn3-c3ccccc3N2C(=O)CN(C(=O)C(C)Cl)C(C)C)cc1` (centres undefined), the Ki was 220 nM. Molecule `CCCCN(CC(=O)N1c2ccccc2-n2cccc2C1c1ccc(F)cc1)C(=O)C(C)Cl` (centres undefined) has a Ki of 162 nM. Molecule `CCCCN(CC(=O)N1c2ccccc2-n2cccc2C1c1ccc(OC)cc1)C(=O)C1CC1` (centres undefined) has a Ki of 78 nM. In the case of `CCCCN(CC(=O)N1c2ccccc2-n2cccc2C1c1ccc(OC)cc1)C(=O)c1cc(Cl)cc(Cl)c1` (centres undefined), the Ki is reported as 831 nM. Molecule `CCCCN(CC(=O)N1c2ccccc2-n2cccc2C1c1ccc(OC)cc1)C(=O)c1ccccc1C` (centres undefined) has a Ki of 503 nM. `CCCCN(CC(=O)N1c2ccccc2-n2cccc2C1c1ccc(OC)cc1)C(=O)CC(C)C` (centres undefined) gave a Ki of 236 nM. With `CCCCN(CC(=O)N1c2ccccc2-n2cccc2C1c1ccc(OC)cc1)C(=O)C(C)C` (centres undefined) the Ki was 124 nM. `CCCCN(CC(=O)N1c2ccccc2-n2cccc2C1c1ccc(OC)cc1)C(=O)c1ccccc1Cl` (centres undefined) was tested, and the Ki was 137 nM. In the case of `CCCCN(CC(=O)N1c2ccccc2-n2cccc2C1c1ccc(OC)cc1)C(=O)C(C)Cl` (centres undefined), the Ki is reported as 46 nM. For `CCCCN(CC(=O)N1c2ccccc2-n2cccc2C1c1ccc(OC)cc1)C(=O)C1CCCC1` (centres undefined), the Ki was 602 nM. Work on `CCCCN(CC(=O)N1c2ccccc2-n2cccc2C1c1ccc(OC)cc1)C(=O)COC` (centres undefined) yielded a Ki of 461 nM. `CCCCN(CC(=O)N1c2ccccc2-n2cccc2C1c1ccc(OC)cc1)C(=O)c1ccccc1F` (centres undefined) gave a Ki of 349 nM. With `CCCCN(CC(=O)N1c2ccccc2-n2cccc2C1c1ccc(OC)cc1)C(=O)CC` (centres undefined) the Ki was 539 nM.

The molecules below were run against Cannabinoid receptor 1 (Rattus norvegicus) (UniProt P20272) (assay: Displacement of [3H]SR141716A from CB1 receptor in rat cerebellum membrane at 1 uM).
Sequence of Cannabinoid receptor 1 (Rattus norvegicus) (P20272 whole entry): as above
Assay type: cell membranes
`CCCCN(CC(=O)N1c2ccccc2-n2cccc2C1c1cc(OC)ccc1OC)C(=O)C(C)Cl` (centres undefined) showed an inhibition of 45%. With `CCCCN(CC(=O)N1c2ccccc2-n2cccc2C1c1ccc(OC)cc1)C(C)=O` (centres undefined) the inhibition was 31%. With `CCCCN(CC(=O)N1c2ccccc2-n2cccc2C1C)C(=O)C(C)Cl` (centres undefined) the inhibition was 15%. Work on `COc1ccc(C2c3cccn3-c3ccccc3N2C(=O)CN(C)C(=O)C(C)Cl)cc1` (centres undefined) yielded an inhibition of 46%. `CCCCN(CC(=O)N1c2ccccc2-n2cccc2C1CC)C(=O)C(C)Cl` (centres undefined) showed an inhibition of 14%. In the case of `COc1ccc(C2c3cccn3-c3ccccc3N2C(=O)CNC(=O)C(C)Cl)cc1` (centres undefined), the inhibition is reported as 25%. With `COc1ccc(C2c3cccn3-c3ccccc3N2C(=O)CN(C(=O)C(C)Cl)C2CC2)cc1` (centres undefined) the inhibition was 40%. In the case of `CCCCN(CC(=O)N1c2ccccc2-n2cccc2C1c1ccccc1OC)C(=O)C(C)Cl` (centres undefined), the inhibition is reported as 36%.
